Consider 39 compounds from US8748411B2, “Antineoplastic compounds and pharmaceutical compositions thereof” (Centro de Ingenieria Genetica y Biotechnologia, priority 2005, dated 2014).

Like-named read-outs stand apart in the source and are kept apart here. Where a SMILES comes first, the peptide text is derived from it.

The test system of test [1] is CK2 optimized consensus substrate sequence RRREEETEEE
Nature of the test: In vitro CK2 phosphorylation of the optimized consensus substrate peptide […], filter radioactivity. As to conditions: read-out: Inhibitory concentration 50 (IC50). The class given is biochemical. Here is the method:
The assay consists in performing an in vitro phosphorylation reaction, using as the substrate the sequence […] (SEQ. ID NO. 1) widely accepted as an optimized consensus phosphorylation domain for the CK2 substrates.
Before the enzymatic reaction the substrate peptide was preincubated one hour at 37° C., with different concentrations of the chemical compounds. The reaction is carried out in a mixture consisting of 50 μl Tris:HCL 25 mM pH 7.5 buffer, 1 μCi of ^32P-γATP, 100 μM ATP, 40 μl E7-GST containing resin, 0.2 M NaCl, 10 mM MgCl and 1 unit of the CK2 enzyme (Promega), allowing it to proceed for 10 minutes at 37° C. After the reaction 5 μl of the reaction mixture were applied to a Whatmann PE-81 paper filter and washed four times with 10 mM H3PO4, finally the paper associated radioactivity was measured and the cpm value for each sample was directly correlated with the CK2 enzymatic activity.
The IC50 values were estimated using each dosage-effect curve.

Test [2] deals with H-125 cells. Briefly: Cytotoxic effect on cultured human tumour cells (MTS, 72 h). The class given is cell-based. To be noted: read-out: Inhibitory concentration 50 (IC50). As to the method: H-125 cells from a human Non Small Cells Lung Carcinoma were soiled in 96 well plates (Costar) to a 2×10^4 cell/ml density in Dulbecco (DMEM) media (Gibco) and supplemented with Foetal Calf Serum (Gibco). 24 hours later the chemical compounds described herein were added to the cultured media in a range between 0.5 and 100 nM, incubating the mixture for 72 h at 37° C. in 5% CO2, at the end 20 μl of a 1.90 mg/ml MTS solution was added. […] The results are evaluated as growth percentage to controls without any compound, and the IC50 values were estimated using each dosage-effect curve.

Test [3] has as its target oncoprotein E7 from Human Papilloma Virus type 16 as GST fusion protein (E7-GST), phosphorylated by CK2 enzyme (Human papillomavirus type 16, UniProt P03129). It counts as biochemical. As to conditions: read-out: Inhibitory concentration 50 (IC50).
Test [4] has as its system H-125 cells tumour implant. The arrangement: species or system BalbC nude mice. To be noted: mouse, in vivo.
Test [5] concerns Jurkat cells. As to conditions: cited from earlier work.
Setting [6] is: substrate peptide preincubated 1 h at 37° C., reaction 10 minutes at 37° C., 100 μM ATP.
Where [7] appears, read: NCI-H125, H-125 cells, 72 h, MTS, absorbance 492 nm.

Chain of oncoprotein E7 from Human Papilloma Virus type 16 as GST fusion protein (E7-GST), phosphorylated by CK2 enzyme (P03129 whole entry, looked up, the tested form may be a part): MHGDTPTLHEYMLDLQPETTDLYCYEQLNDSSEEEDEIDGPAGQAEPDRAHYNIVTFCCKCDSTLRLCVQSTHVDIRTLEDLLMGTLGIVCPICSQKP

For `CC1=C/C(=N\NC(N)=O)CC(C)(C)C1` [C30401], the IC50 in test [1] was found to be 62 ± 11 nM; in test [2] (NCI-H125, 72 h), 103 ± 21 nM; in test [3], 26 ± 11 nM.
As to `CC(C)NC(=S)Nc1c(N)nc(O)nc1O` [C30402], the IC50 in test [1] (setting [6]) worked out at 74 ± 7 nM; in test [2] (setting [7]) it was 98 ± 7 nM; in test [3] it was 30 ± 5 nM.
`CCCCNC(=O)NCc1ccco1` [C30403]: the IC50 in test [1] turned out to be 58 ± 9 nM; in test [2] (NCI-H125, 72 h), 128 ± 9 nM; in test [3] it was 34 ± 9 nM.
On the same counts, the results for `O=C(O)CCNC(=O)NCCC(=O)O` [C30404] are 61 ± 8 nM, 115 ± 18 nM and 20 ± 8 nM.
Regarding `N#CCNC(=O)NCCCl` [C30405], the IC50 in test [1] came to 57 ± 10 nM; in test [2] (NCI-H125, 72 h), 104 ± 12 nM; in test [3], 27 ± 10 nM.
On the same counts, the results for `C/C(Cc1c[nH]c2ccccc12)=N\NC(N)=S` [C30406] are 60 ± 7 nM, 97 ± 17 nM and 32 ± 7 nM.
In the case of `C/C=C/CC/C(=N\NC(N)=O)c1ccccc1` [C30408], the IC50 was 79 ± 5 nM in test [1]; 119 ± 8 nM in test [2] (NCI-H125, 72 h); 29 ± 2 nM in test [3].
The corresponding values for `O=C(NCO)NC1NC(=O)NC1=O` (stereo not drawn) [C30409] are 55 ± 6 nM, 104 ± 6 nM and 31 ± 6 nM.
The corresponding values for `Clc1cc(Cl)cc(Nc2nc(C(Cl)(Cl)Cl)nc(C(Cl)(Cl)Cl)n2)c1` [C30410] are 54 ± 7 nM, 114 ± 7 nM and 40 ± 9 nM.
The corresponding values for `CC(C)(C)NC(=O)NCCCl` [C30411] are 66 ± 12 nM, 126 ± 15 nM and 27 ± 10 nM.
Regarding `CC(C)(NC(=O)NCCCl)c1ccccc1` [C30412], the IC50 in test [1] turned out to be 71 ± 5 nM; in test [2] (NCI-H125, 72 h) it was 91 ± 15 nM; in test [3], 30 ± 3 nM.
On the same counts, the results for `CC(C)(CS(C)(=O)=O)NC(=O)NCCCl` [C30413] are 64 ± 11 nM, 130 ± 11 nM and 24 ± 9 nM.
Take `N=C(N)C(NC=O)C(=O)NCc1ccccc1` (stereo not drawn) [C30414]: the IC50 in test [1] came to 68 ± 9 nM; in test [2] (NCI-H125, 72 h), 118 ± 9 nM; in test [3] it was 23 ± 9 nM.
On the same counts, the results for `C/C(COc1ccccc1)=N/NC(N)=S` [C30415] are 72 ± 10 nM, 112 ± 10 nM and 33 ± 8 nM.
`NCC(=O)NCC(=O)NCC(=O)NCC(=O)O` [C31416] (H-GGGG-OH): the figures for the IC50 in test [1] (setting [6]), in test [2] (setting [7]) and in test [3] were 69 ± 6 nM, 109 ± 6 nM and 39 ± 6 nM, respectively.
`CN(CC(=O)O)C(=O)CNC(=O)OCc1ccccc1` [C31417] (HELM PEPTIDE1{[O=C(OCc1ccccc1)[*:2]].G.[Sar]}$$$$V2.0): the IC50 in test [1] is 78 ± 11 nM; in test [2] (NCI-H125, 72 h), 118 ± 21 nM; in test [3] it was 28 ± 11 nM.
Take `CC(Br)C(=O)NCC(=O)NCC(=O)O` (stereo not drawn) [C31418]: the IC50 in test [1] was determined as 72 ± 5 nM; in test [2] (NCI-H125, 72 h), 123 ± 15 nM; in test [3], 32 ± 5 nM.
On the same counts, the results for `NC(=S)NN=CCn1ccc(=O)n(CC=NNC(N)=S)c1=O` [C31419] are 60 ± 8 nM, 132 ± 18 nM and 30 ± 4 nM.
For `NCCC(=O)NCC(=O)NCC(=O)O` [C31420] (HELM PEPTIDE1{[bAla].G.G}$$$$V2.0), the IC50 was 55 ± 11 nM in test [1]; 125 ± 10 nM in test [2] (NCI-H125, 72 h); 25 ± 7 nM in test [3].
The corresponding values for `NNC(=O)CNc1ccc(F)c(C(F)(F)F)c1` [C31421] are 50 ± 8 nM, 120 ± 18 nM and 30 ± 8 nM.
The corresponding values for `NNC(=O)CNc1cccc(I)c1` [C31422] are 74 ± 5 nM, 114 ± 5 nM and 24 ± 5 nM.
On the same counts, the results for `CC(C(=O)NCC(O)CO)n1ccnc1[N+](=O)[O-]` (stereo not drawn) [C31423] are 76 ± 4 nM, 106 ± 9 nM and 26 ± 8 nM.
`CCCC(NC(=O)CNC(=O)CN)C(=O)O` (stereo not drawn) [C31424] (HELM PEPTIDE1{G.G.[CCCC(N[*:1])C(=O)O]}$$$$V2.0): the IC50 in test [1] amounted to 62 ± 1 nM; in test [2] (NCI-H125, 72 h) it was 162 ± 11 nM; in test [3] it was 32 ± 13 nM.
Take `O=C(O)CNC(=S)C(=S)NCC(=O)O` [C32425]: the IC50 in test [1] was found to be 65 ± 13 nM; in test [2] (NCI-H125, 72 h), 115 ± 12 nM; in test [3], 35 ± 3 nM. Moreover, in test [4], the antitumoral response entry is reported as “significant antitumoral response”.
The corresponding values for `NCCNCCNCCNCCN` [C33426] are 79 ± 9 nM, 109 ± 19 nM, 29 ± 8 nM and “significant antitumoral response”.
In the case of `OCCNCCCNc1ccnc2cc(Cl)ccc12` [C34428], the IC50 in test [1] is 65 ± 10 nM; in test [2] (NCI-H125, 72 h), 165 ± 12 nM; in test [3] it was 25 ± 7 nM.
On the same counts, the results for `O=S(=O)(O)Nc1cnc(O)nc1O` [C34429] are 61 ± 4 nM, 131 ± 4 nM and 21 ± 12 nM.
On to `O=C1NC(=O)C(CS(=O)(=O)Nc2cccc(C(F)(F)F)c2)N1` (stereo not drawn) [C34430], for which the IC50 was determined as 70 ± 4 nM in test [1]; 140 ± 14 nM in test [2] (NCI-H125, 72 h); 30 ± 4 nM in test [3].
`O=C(NNCCO)c1ccncc1` [C34431]: the IC50 was 55 ± 3 nM in test [1]; 155 ± 23 nM in test [2] (NCI-H125, 72 h); 32 ± 6 nM in test [3].
The corresponding values for `O=C(O)c1cc(O)nc(SCc2ccc(Cl)cc2Cl)n1` [C34432] are 67 ± 7 nM, 127 ± 7 nM and 29 ± 7 nM.
On the same counts, the results for `NCCC(=O)NCc1ccccc1` [C34433] are 76 ± 8 nM, 116 ± 18 nM and 26 ± 10 nM.
The corresponding values for `NNC(=O)CC(O)C(=O)NN` (stereo not drawn) [C34434] are 78 ± 1 nM, 108 ± 21 nM and 28 ± 5 nM.
Take `NC(CC(=O)NC(=O)OCc1ccccc1)C(=O)O` (stereo not drawn) [C34435]: the IC50 in test [1] turned out to be 64 ± 6 nM; in test [2] (NCI-H125, 72 h) it was 124 ± 16 nM; in test [3], 34 ± 3 nM.
On the same counts, the results for `N#CC(Nc1ccccc1C(N)=O)c1ccccc1` (stereo not drawn) [C34436] are 66 ± 2 nM, 116 ± 22 nM and 30 ± 2 nM.
On the same counts, the results for `Cn1c(CCNC(=N)CSS(=O)(=O)O)nc2ccccc21` [C34437] are 71 ± 9 nM, 131 ± 9 nM and 27 ± 4 nM.
On the same counts, the results for `CC(O)CNc1nc(N)nc(O)c1[N+](=O)[O-]` (stereo not drawn) [C34438] are 81 ± 7 nM, 111 ± 17 nM and 31 ± 1 nM.
As to `CSc1nc(N)nc2c1ncn2C1CC(CO)C(O)C1O` (stereo not drawn) [C34439], the IC50 in test [1] is 63 ± 12 nM; in test [2] (NCI-H125, 72 h), 123 ± 25 nM; in test [3], 33 ± 5 nM.
As for `CCOC(=O)c1cc[nH]c1CC(=O)NN` [C34440], the IC50 in test [1] worked out at 56 ± 4 nM; in test [2] (NCI-H125, 72 h), 136 ± 32 nM; in test [3], 26 ± 4 nM.
For `Brc1c(Br)c(Br)c2[nH]nnc2c1Br` [TBB, 4,5,6,7-tetrabromotriazole], the “apoptosis and caspase dependent degradation induction” value in test [5] is “potent apoptosis and caspase dependent degradation inducer”.
